Laboratory results taken from patent US20230125667A1, “NOVEL TDZD ANALOGS AS AGENTS THAT DELAY, PREVENT, OR REVERSE AGE-ASSOCIATED DISEASES AND AS ANTI-CANCER AND ANTILEUKEMIC AGENTS” (United States Government as represented by the Department …, priority 2020, published 2023).

Key:
[1] = test system: wild-type nematodes; assay: Lifespan of C. elegans; assay type: in vivo; settings: FIG. 8
Experimental: It was previously shown that several interventions that improve age-associated phenotypes also modulate lifespan (Ayyadevara et al. (2017) Antioxid Redox Signal. 27(17): 1383-1396; Ayyadevara et al. (2005) Aging Cell. 4(5): 257-271). The lifespan was assessed in C. elegans, either mock-treated or exposed to TDZD analogues. PNR-962 and BSK-179 extended the lifespan of wild-type nematodes to an identical degree, increasing the mean by roughly 25-30% (P<0.001; FIG. 8).
To obtain synchronized eggs for lifespan studies, worms were maintained for 2 generations, free of contamination and starvation. Healthy, well-fed adult worms from the 2nd generation were then lysed, and eggs placed on plates with appropriate doses of TDZD analogue PNR962, or DMSO vehicle alone (for a final concentration of 0.02% v/v DMSO). At the L4 larval stage, worms were transferred daily to fresh plates for 7 days, and thereafter on alternate days until all the worms are dead. C. elegans that moved spontaneously or responded to gentle prodding were scored as alive. For the mortality computation, worms that were lost for reasons other than natural death were censored. The methods described were adopted from previously described experimental procedures (Ayyadevara, et al. (2016) PIP3-binding proteins promote age-dependent protein aggregation and limit survival in C. elegans. Oncotarget, 7(31): 48870-48886; Bharill, et al. (2013) Extreme Depletion of PIP3 Accompanies the Increased Life Span and Stress Tolerance of PI3K-null C. elegans Mutants. Frontiers in Genetics, 4).

[2] = test system: C. elegans; settings: in vivo; cited from earlier work
[3] = test system: SH-SY5Y-APPSw cells; assay: Thioflavin-T staining of amyloid-like aggregates in SH-SY5Y-APPSw cells; assay type: cell-based, human
Experimental: (§1) Several TDZD-conjugated drugs (putative GSK-3 inhibitors) were evaluated for their ability to reduce accumulation of protein aggregates, and for protection against aggregation-associated end-points in the following model systems: (i.) SH-SY5Y-APPSw, a neuroblastoma cell line expressing the Swedish mutation of Amyloid Precursor Protein (APPSw), and thus predisposed to form β-amyloid deposits; (ii.) C. elegans strain CL4176, a model of Alzheimer-like amyloidopathy that can be induced to express human Aβ1-42 in muscle, or may express it at a lower level without induction; (iii.) C. elegans strain AM141, a model of Huntington-like polyglutamine aggregation that constitutively expresses Q40::YFP (a tract of 40 glutamines fused in-frame to yellow fluorescent protein) in muscle cells and forms aggregates progressively with adult aging. The TDZD analog PNR-962 (a putative GSK-3 inhibitor) and other related compounds (not shown) were protective in all aggregation assays.
First, the effects of TDZD analogues were tested on the human neuroblastoma cell line SH-SY5Y-APPSw, a model of Alzheimer-like amyloid aggregation expressing the “Sw” mutant form of Amyloid Precursor Protein, APP. These drugs all produced significant reductions in amyloid-like aggregates, by 30-50% as quantified by thioflavin-T staining intensity (data for PNR-962 are shown in FIG. 4). Modified TDZD-8 analogues PNR-962 and BSK-179 are more anti-aggregative than TDZD-8, lowering total amyloid-staining intensity by a further 14% (data not shown).
Following previously described experimental procedures (Liu, et al. (2005). S100B-induced microglial and neuronal IL-1 expression is mediated by cell type-specific transcription factors. Journal of Neurochemistry. 92(3): 546-553), SH-SY5Y-APPSw neuronal cells expressing an aggregation-prone double mutant of amyloid precursor protein (APPSw) were cultured in DMEM plus 10% (v/v) fetal bovine serum (FBS) at 37° C. Cells were suspended in trypsin/EDTA and rinsed in PBS prior to re-plating or harvesting. […] Human neuroblastoma cells were treated with PNR962, either simultaneous with sAPPα or beginning 1 h prior to sAPPα addition (pre-treatment) in order to ascertain the protective benefits of PNR962 on protein aggregation in human neuroblastoma cell lines. A similar experimental procedure was followed to examine the effect of treatment with these analogs on non-neuronal human cells, exposing human embryonic kidney cells (HEK) that express tau-like aggregates (found in AD-associated diseases) to 0.001, 0.01, and 1-μM doses of TDZD-8 and its analogues.
To observe the protective effects of the novel TDZD analogs on protein aggregation in SY5Y-APPSw cells, using DMEM medium containing 10% fetal calf serum in […], cells were cultured at 37′C for 26 hrs allowing cells to approximately double in number. After 48 h of cell incubation in the presence of specified concentrations of drug or vehicle, cells were fixed 15 min in formaldehyde (4% v/v), washed, and stained 20 min at ˜22° C. in a dark container with 0.1% w/v Thioflavin T mixed with DAPI (1 μg/ml; Life Technologies, Grand Island, N.Y., USA). […] The intensity of aggregate/thioflavin-T fluorescence per field was quantified via an Image J plug-in developed in-house, and normalized to the number of DAPI^+ nuclei counted per field, to obtain an average intensity of aggregates per cell for each treatment.

[4] = test system: C. elegans strain AM141; assay: Q40::YFP aggregates in C. elegans strain AM141; assay type: in vivo
Experimental: as §1
Fresh agar plates supporting bacterial lawns, which serve as food for C. elegans, were prepared at least 1 day ahead of use. C. elegans AM141 (forming Q40::YFP aggregates in muscle, progressively in early adulthood) were placed on these 100-mm plates. Day-4 adult worms were lysed with alkaline hypochlorite solution to obtain eggs from worms, a procedure that permits synchronization of worms in a cohort. Eggs were placed on plates spotted with different concentrations of TDZD analogues after allowing the compounds to be evenly distributed on the plates (˜1 hour after adding drugs to plates). Vehicle-only (DMSO) controls are included in each experiment, as a baseline for drug effects in experimental groups. Young-adult AM141 (day-3 adults) were transferred on alternate days onto fresh plates that contained the same doses of compounds, with fresh E. coli to prevent starvation of worms. Equal samples (n=25) were randomly picked from experimental groups and control group for microscopic imaging. Using an in-house plugin for ImageJ software (NIH), several images of AM141 were processed for aggregate count per worm. The fluorescence intensity of each aggregate (indicating the size/content of protein aggregates) was also measured. Each drug treatment was repeated multiple times to validate the results.

Compound | lifespan [1] | extension of nematode lifespan [2] [%] | further lowering of total amyloid-staining intensity relative to TDZD-8 ([3]; data not shown) [%] | amyloid accumulation (thioflavin T stained foci) ([3]; treated for 2 days (FIG. 9)) | number of aggregation foci ([4]; C. elegans model of Huntington's Disease (FIG. 7)) | reduction of total intensity of Q40::YFP aggregates ([4]; FIG. 7) [fold]
CC(=O)Oc1ccccc1C(=O)O [aspirin, acetylsalicylic acid, reference compound] | increased | 22 | – | – | – | –
CC(=O)Oc1ccccc1C(=O)NCc1ccc(Cn2c(=O)sn(CCCl)c2=O)cc1 [BSK-179] | increased | – | 14 | reduces amyloid accumulation | decreases | > 2
